Earlier results, collected in US10561609B2, “Antiviral compositions” (The University of Liverpool, priority 2010, dated 2020).
Counter-ions that a name gives are not always drawn.

Details: according to M. Fardis and R. Oliyai; same value restated in g/L

- water solubility: 13.4 mg/mL
SMILES: CC(C)OC(=O)OCOP(=O)(CO[C@H](C)Cn1cnc2c(N)ncnc21)OCOC(=O)OC(C)C [tenofovir disoproxil fumarate]
